Consider 25 compounds from US20260184712A1, “Heterocyclic Compounds as ENT Inhibitors and Compounds for Use in the Treatment of Cancers” (iTeos Belgium SA, priority 2022, published 2026).

The experiment has as its target T1, human ENT1 (Homo sapiens, UniProt Q99808).
T1 construct: JAR cells expressing ENT1 were purchased from ATCC; host or cells: JAR cells
T1 sequence (Q99808 1-456): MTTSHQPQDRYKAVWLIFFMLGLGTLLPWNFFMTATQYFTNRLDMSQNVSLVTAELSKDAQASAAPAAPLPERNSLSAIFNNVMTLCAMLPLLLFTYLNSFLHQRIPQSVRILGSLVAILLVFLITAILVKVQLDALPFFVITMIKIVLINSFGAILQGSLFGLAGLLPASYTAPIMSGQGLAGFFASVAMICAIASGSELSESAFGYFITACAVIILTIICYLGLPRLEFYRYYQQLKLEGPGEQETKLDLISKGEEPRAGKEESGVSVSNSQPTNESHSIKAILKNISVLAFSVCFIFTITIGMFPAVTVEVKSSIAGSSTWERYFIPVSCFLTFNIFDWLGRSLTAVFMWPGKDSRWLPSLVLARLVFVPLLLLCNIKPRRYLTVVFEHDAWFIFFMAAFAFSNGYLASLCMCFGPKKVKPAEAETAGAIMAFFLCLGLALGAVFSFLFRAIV
As to the kind of experiment: ENT1 binding assay (competition with Sahenta-DY647 on JAR cells). As to conditions: competition with SAHENTA-DY647 binding; IC50 categorized; read-out: Binding Assay IC50. In outline:
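Fluorescent-tracer displacement: compound incubated with JAR cells 30 min, 4 °C, before Sahenta-DY647 (100 nM) for another 30 min, 4 °C, in Hepes-buffered HBSS with 0.1% BSA. Bound tracer read at 670 nm after washes; IC50 from four-parameter fit, reported as mean of pIC50 values.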
For orientation: IC50 means the midpoint of a concentration-inhibition curve. With `C[C@H]1O[C@@H](n2cnc3c(COc4ccc(Cl)cc4)ncnc32)[C@H](O)[C@@H]1O` [Compound 285], the IC50 was over 500 nM.
`NC[C@H]1O[C@@H](n2cnc3c(SCc4ccc([N+](=O)[O-])cc4)ncnc32)[C@H](O)[C@@H]1O` [Compound 287]: the IC50 was over 500 nM.
In the case of `C[C@H]1O[C@@H](n2cnc3c(COc4ccc(OC(F)(F)F)cc4)ncnc32)[C@H](O)[C@@H]1O` [Compound 288], the IC50 is over 500 nM.
Next, `Cc1cc(CSc2ncnc3c2ncn3[C@@H]2O[C@H](C)[C@@H](O)[C@H]2O)n(C)n1` [Compound 289]: over 500 nM; `C[C@H]1O[C@@H](n2cnc3c(COCc4ccc(Cl)cc4)ncnc32)[C@H](O)[C@@H]1O` [Compound 290]: over 500 nM; `C[C@H]1O[C@@H](n2cnc3c(OCc4ccc(-c5cnco5)cc4)ncnc32)[C@H](O)[C@@H]1O` [Compound 291]: over 500 nM.
Next, `CN(CCO)C(=O)[C@H]1O[C@@H](n2cnc3c(OCc4ccc([N+](=O)[O-])cc4)ncnc32)[C@H](O)[C@@H]1O` [Compound 292]: over 500 nM; `C[C@H]1O[C@@H](n2cnc3c(OCCc4ccc(Cl)cc4)ncnc32)[C@H](O)[C@@H]1O` [Compound 293]: over 500 nM; `C[C@H]1O[C@@H](n2cnc3c(OCCc4ccc(CF)cc4)ncnc32)[C@H](O)[C@@H]1O` [Compound 294]: over 500 nM.
As to `C[C@H]1O[C@@H](n2cnc3c(C(=O)NCc4ccc(OC(F)(F)F)cc4)ncnc32)[C@H](O)[C@@H]1O` [Compound 295], the IC50 is over 500 nM.
Next, `C[C@H]1O[C@@H](n2cnc3c(COc4ccc(OCF)cc4)ncnc32)[C@H](O)[C@@H]1O` [Compound 296]: over 500 nM.
To `CNS(=O)(=O)c1ccc(CSc2ncnc3c2ncn3[C@@H]2O[C@H](C)[C@@H](O)[C@H]2O)cc1` [Compound 297] belongs over 500 nM.
Take `C[C@H]1O[C@@H](n2cnc3c(C(=O)NCc4ccc(C(F)(F)F)cc4)ncnc32)[C@H](O)[C@@H]1O` [Compound 298]: the IC50 was over 500 nM.
To `C[C@H]1O[C@@H](n2cnc3c(N4CCN(c5ccc([N+](=O)[O-])cc5)CC4)ncnc32)[C@H](O)[C@@H]1O` [Compound 299] belongs over 500 nM.
Regarding `C[C@H]1O[C@@H](n2cnc3c(SCc4cscn4)ncnc32)[C@H](O)[C@@H]1O` [Compound 300], the IC50 was over 500 nM.
Next, `C[C@H]1O[C@@H](n2cnc3c(C(=O)NCc4ccc(OC(F)F)cc4)ncnc32)[C@H](O)[C@@H]1O` [Compound 301]: over 500 nM.
Take `C[C@H]1O[C@@H](n2cnc3c(C(=O)N4CCc5cc([N+](=O)[O-])ccc5C4)ncnc32)[C@H](O)[C@@H]1O` [Compound 302]: the IC50 is over 500 nM.
To `OC[C@@H]1C[C@@H](O)[C@H](n2cnc3c(OCc4ccc(OC(F)F)cc4)ncnc32)O1` [Compound 303] belongs over 500 nM; to `CC(NC(=O)c1ncnc2c1ncn2[C@@H]1O[C@H](C)[C@@H](O)[C@H]1O)c1ccc([N+](=O)[O-])cc1` (stereo partly shown) [Compound 305], over 500 nM; to `C[C@H]1O[C@@H](n2cnc3c(SCc4cccc(OC5CC5)c4)ncnc32)[C@H](O)[C@@H]1O` [Compound 306], over 500 nM.
Consider `C[C@H]1O[C@@H](n2cnc3c(OCc4ccc(C(F)(F)F)cc4Cl)ncnc32)[C@H](O)[C@@H]1O` [Compound 307], for which the IC50 is over 500 nM.
Next, `C[C@H]1O[C@@H](n2cnc3c(SCc4ccc5ccncc5c4)ncnc32)[C@H](O)[C@@H]1O` [Compound 308]: over 500 nM.
Next, `O=[N+]([O-])c1ccc(COc2ncnc3c2nnn3[C@@H]2C[C@H](OCCO)[C@@H](O)[C@H]2O)cc1` [Compound 309]: over 500 nM; `C[C@H]1O[C@@H](n2cnc3c(SCc4nc(-c5ccccc5Cl)no4)ncnc32)[C@H](O)[C@@H]1O` [Compound 310]: over 500 nM; `C[C@H]1O[C@@H](n2cnc3c(SCc4cnc(C(F)(F)F)nc4)ncnc32)[C@H](O)[C@@H]1O` [Compound 311]: over 500 nM.
